test: Human HepG2 cell viability assay in 384 well format; assay type: toxicity, cell-based; parameters: dose 125 nL, time 70.5 hour; cytotoxicity at 70.5 h: concentration not given beside the values; details: HepG2 cells, read-out: Inhibition

Structure (SMILES)	cytotoxicity at 70.5 h
Cc1nc2ncnn2c2ccn(-c3cccnc3O)c(=O)c12	-15.9%
COc1ccc(CCCC(=O)NCc2c(C)noc2C)cc1F	20%
Cc1nnc(N2CCc3cncnc3C2)c(C#N)c1C	-4.76%
CC1CCN(c2nc3ncc4c(c3c(=O)[nH]2)CC(C)(C)CC4=O)CC1	-4.25%
CN(Cc1ccco1)[C@@H]1CN(CC2CCOCC2)C[C@@H]2CCCO[C@@H]21	4.38%
O=S(=O)(NCc1ccccc1)Nc1ccc(-n2cncn2)cc1	-5.87%
CCOCC(O)CN1CCN(C(=O)Cc2cccc(Cl)c2)CC1 (stereo not drawn)	-5.95%
CC(=O)NC1CCCN(C(=O)NCc2cccnc2)C1 (stereo not drawn)	0.9%
COc1ccc2c(c1)OCC(Cc1ccnc(N)n1)C2 (stereo not drawn)	8.07%
Cc1csc(N2CCN(C(=O)CCCNc3ncccn3)CC2)n1	-5.37%
Cc1cc(NC(=O)CN2CCOC(CN(C)C)C2)n(C)n1 (stereo not drawn)	17.6%
Cc1ncc(CN2CCC(N(C)Cc3noc(C4CC4)n3)C2)s1 (stereo not drawn)	19%
CCOC(=O)c1sc2ccsc2c1CNS(C)(=O)=O	-3.52%
Clc1ccc(CN(CCN2CCOCC2)Cc2cccnc2)cc1Cl	-5.5%
CN(Cc1ccco1)Cc1ccccc1CNC(=O)c1ccc[nH]1	-9.87%
CCc1noc(CC)c1CC(=O)N1CCCC(N2CCCCC2)C1 (stereo not drawn)	-8.14%
Cc1cc(NC(=O)NCC(O)c2ccc(F)cc2)n(C)n1 (stereo not drawn)	-12.7%
CN(C)c1ncc(-c2cncnc2)c(C2CNCCO2)n1 (stereo not drawn)	-8.74%
C[C@H](NC(=O)c1cccc(CCC(C)(C)O)c1)C(N)=O	-0.496%
O=C(NC[C@H]1OC[C@@H]2CCN(C(=O)c3ccco3)C[C@@H]21)C1CC1	-6.37%
O=C(NCCNC1CCN(c2nccs2)CC1)c1cccs1	-9.14%
Cc1oc(-c2cccc(F)c2)nc1CN1CCOCS1(=O)=O	-11.9%
COc1cccc(CCC(=O)N2CCC[C@@H](N)[C@@H]2c2ccccc2F)c1	-1.81%

Structure (SMILES)	cytotoxicity at 70.5 h
COc1ccc(NC(=O)CSc2nncn2-n2cccc2)c(OC)c1	-14.5%
Cc1cc(NC(=O)Cn2cnc(-c3cccs3)cc2=O)sn1	11.1%
CCCOC(C)Cn1ccc2[nH]c(=O)c(C#N)cc2c1=O (stereo not drawn)	10.5%
CCN(CC)C(=O)Cn1ccc2cc(NC(=O)C3CCCCC3)ccc21	14.5%
NC(=O)CC1CCN(c2cncc(OCc3ccccc3)n2)CC1	-5.14%
Cc1cc(C[S+]([O-])Cc2ccccc2C)no1 (stereo not drawn)	-8.16%
CC1c2ncc(COCC3CC3)n2CCN1C (stereo not drawn)	-4.63%
CNc1ccc(C)cc1C(=O)N[C@H]1C[C@H]2CN(C)CCN2C1	-13.3%
COc1ccc(NC(=O)CCN2CC=C(c3cnn(C)c3)CC2)cc1Cl	5.66%
O=C(c1ccc(O)nc1)N1CCc2ccc(O)cc2C1	-13%
COc1ccc(S(=O)(=O)N[C@H]2CN(C(C)=O)C[C@@H]2C(C)C)cc1F	-12.5%
CN(C)CCN(Cc1ccc(Cl)cc1)C(=O)c1ccncc1	-1.83%
CCc1cc(C(=O)N2Cc3ccccc3OC3(CCOCC3)C2)on1	8.33%
O=C(c1ccc2c(c1)CCCC2)N1CCOCC1c1ncon1 (stereo not drawn)	2.82%
COC(=O)c1ccc2c(-c3ccnc(N[C@@H](C)CO)n3)c[nH]c2c1	-2.09%
Cc1cccc(S(=O)(=O)N2C[C@H]3C[C@H](C(=O)NC4CCC4)[C@@H](C2)O3)c1	-10.5%
CS(=O)(=O)Cc1noc(CN2CCN(c3ccccc3Cl)CC2)n1	-76.6%
COc1ccc(-c2cn3c(n2)CO[C@@H](CNCc2nccn2C)C3)cc1	6.44%
CCN1CCN(C(=O)C(C)SC)CC1 (stereo not drawn)	-6.96%
O=C(O)c1nnn(-c2ccc(Cl)c(C(F)(F)F)c2)c1-c1ccncc1	-26.7%
O=C(c1cc(Cl)cc2cccnc12)N1CCN(CCO)CC1	-8.63%
CCS(=O)(=O)N1CCC(c2nc3ccc(-c4ccccc4)cn3n2)CC1	-5.21%
O=C(Nc1ccc(F)cc1F)Nc1c[nH]c(=O)[nH]c1=O	-14.5%

Structure (SMILES)	cytotoxicity at 70.5 h
CCc1[nH]c2c(CNc3cncc(C(=O)OC)n3)cc(C)cc2c1C	20.4%
COc1ncc(NCc2cccc(C#N)c2)cc1C(N)=O	-1.66%
CC1=NOC(C(=O)N2CCC(O)(c3ccc4nc(C)ccc4c3)CC2)C1 (stereo not drawn)	-6.17%
CNS(=O)(=O)c1cc(C(=O)N2CCCCCC2CC(C)C)co1 (stereo not drawn)	-3.95%
O=C(C1CCOCC1)N1CCc2ncc(CN3CCCCC3)n2CC1	-10.2%
Cc1occc1C(=O)N1CCn2c(COCC3CC3)cnc2C1C (stereo not drawn)	-9.85%
COCCCN1CC2(CCCCN2C(=O)COC)CC1=O (stereo not drawn)	-8.44%
O=C(NCc1ccncc1)C1=NOC2(CCCNC2)C1 (stereo not drawn)	14.2%
COc1ncccc1CNC(=O)c1cnc(C)cn1	-3.16%
O=C(CN1CCCC(Cn2cncn2)C1)NCc1ccccc1F (stereo not drawn)	-4.63%
COc1cccc(-c2nc(CNC(C)Cn3cccn3)cs2)c1 (stereo not drawn)	12.8%
CN1CCN(C2CCN(CCOc3cccc(F)c3)CC2)C1=O	-13%
Cc1noc(CNC(=O)NCCc2ccc(Cl)cc2)n1	-3.31%
CCCc1cc(CNC2CCN(c3cc(C)nc(N)n3)CC2)on1	-5.61%
O=C1CCOC[C@]2(CN(Cc3ccccc3)C[C@H]2c2ccccc2)N1	26.7%
COCCNC(=O)C1(CCCc2cccnc2)CCCN1C (stereo not drawn)	13.5%
CS(=O)(=O)N1CCO[C@@H]2CCN(Cc3ccncc3)CC[C@H]21	-6.06%
Nc1nc2c(c(NC3CCCC3)n1)CCN(C(=O)C1CCOC1)CC2 (stereo not drawn)	11.4%
O=C1CCC2(CCN(Cc3nccs3)CC2)CN1CCCO	-6.67%
N#Cc1ccc(OC2CCN(C(=O)c3ccc(Br)o3)CC2)nc1	20.2%
O=C1CN(C(=O)c2cc(Cl)ccc2F)c2ccncc2N1	-8.1%
Cc1nc(C(C)C)sc1C(=O)NS(=O)(=O)c1ccc(C#N)cc1	-9.15%
c1ccc(CCN2CCN(c3ccc4nncn4n3)CC2)nc1	-6.96%

Structure (SMILES)	cytotoxicity at 70.5 h
CCc1cnc(CN(C(C)=O)C2CCN(CCc3ccccc3)C2)o1 (stereo not drawn)	18.3%
CCOCCCNC(=O)N(C)Cc1ccc(SC)c(OC)c1	1.54%
CCN1CCC2(C1)CN(S(=O)(=O)c1cn(C)cn1)C2	-5.09%
CCN(C)C(=O)c1cc(-c2cn(C(C)C)cn2)n2ccccc12	26.7%
CCCC(NC(=O)c1cc(C)ccc1O)c1nnn[nH]1 (stereo not drawn)	-10.4%
CCOc1cccc(CN2CCCn3nc(CNS(C)(=O)=O)cc3C2)c1	-9.54%
CC(C)C(NC(=O)Cn1ccc(=O)n(C)c1=O)c1ccc(F)cc1 (stereo not drawn)	-13.2%
CCCn1nc(C)c(CN2CC3(CCOC3)CCC2=O)c1C (stereo not drawn)	-8.62%
COCC(=O)Nc1ccc([C@@H](O)[C@H]2COCC(=O)N2CC(C)C)cc1	8.86%
c1ccc(COC[C@]23COC[C@H]2CN(c2ncccn2)C3)nc1	-11.9%
CSCCC(NC(=O)C1CC1)C(=O)N(C)Cc1ccsc1 (stereo not drawn)	10.7%
CC(C)N1CC[C@H]2[C@H](C[C@@H](Cn3cncn3)N2c2nccs2)C1	-6.46%
COc1ccc(CN2CC[C@H](c3nc4cccc(C(N)=O)c4[nH]3)C2)cc1	3.39%
Cn1nc(Br)nc1Sc1ccccc1NC(=O)C1CC1	1.89%
CCCS(=O)(=O)N1C[C@@H]2CN(Cc3cnn(C)c3)CCO[C@@H]2C1	-1.12%
Cn1cccc1C(=O)N1CCN(Cc2cccnc2)c2ncccc2C1	-8.24%
CCN(Cc1cccc(Cl)c1)Cc1ncc(C(C)(C)C)o1	-1.17%
O=C1CCCN1Cc1ncn2c1CN(Cc1cccs1)CCC2	-1.34%
Cn1ccnc1CN1CCN(c2ccc(C#N)cc2F)CC1	-7.5%
Cc1cc(-c2cnc(C3CC3)nc2CN(C)C(=O)c2ccccn2)on1	-2.22%
Cc1ccc(C(=O)N2CCC3(CC2)CCN(CCN(C)C)C3=O)cn1	-8.77%
CC(=O)NCC(=O)N1CCN(Cc2ccncc2)c2ncccc2C1	16.8%
Cc1ccc(CN2CCCn3cnc(COCC4CC4)c3C2)o1	-1.19%

Structure (SMILES)	cytotoxicity at 70.5 h
Cc1ccc(C(=O)Nc2nn[nH]n2)s1	-0.43%
O=C(NCCOc1ccc(Cl)cn1)Nc1ccccn1	0.428%
c1cnc2nc(N3CCc4c(ncn4C4CC4)C3)ccc2n1	-6.09%
Cc1ncc(C(=O)N2CCCC2(C)C(=O)N2CCOCC2)c(C)n1 (stereo not drawn)	-7.99%
COc1ccccc1C1SCC(=O)Nc2c1c(=O)[nH]n2C1CCOCC1 (stereo not drawn)	-24.1%
O=C(c1cnc(-c2ccco2)s1)N1CCOc2ncccc21	-1.16%
COc1cccc(/C=C/CCN2CCC(C(=O)N3CCCC3)CC2)c1	3.93%
N#Cc1ccc(CN2CCOCC2)cc1	2.27%
Cc1nc(C)n(CC2CCCN(Cc3cccc4c3OCCO4)C2)n1 (stereo not drawn)	12%
N#CCCNC(=O)CSc1cc(F)ccc1F	-9.07%
CCn1cc(NC(=O)C2CCN(Cc3ccccc3C#N)CC2)cn1	-1.61%
COc1cccc(CN(C)Cc2cccc(C#N)c2)c1OC	-3.83%
O=S(=O)(NCCc1c[nH]c2cc(F)ccc12)C1CCOC1 (stereo not drawn)	0.583%
Cc1cccc(CN2CC[C@@H]3O[C@@H](C(=O)N4CCN(C)CC4)C[C@@H]32)n1	-1.64%
N#Cc1ccnc(NCc2cc3n(n2)CCCN(C(=O)C2CCC2)C3)c1	1.71%
Fc1cccc(N2CCc3ncnc(C4CC4)c3CC2)c1	-4.85%
Cn1nccc1C(=O)N1CCN(C(=O)C2CCC2)[C@@H]2CS(=O)(=O)C[C@@H]21	-6.57%
Cn1ccc2c(C(=O)NCCCS(C)(=O)=O)cccc21	5.4%
CC(=O)N1CCCC1c1cncc(Oc2ccc(F)cc2)n1 (stereo not drawn)	-3.89%
Cc1ncc2c(n1)CN(Cc1noc(C3CC3)n1)CC2	15.6%
Cc1ccc(CN2C[C@@H]3CCN(Cc4ccncc4)C(=O)[C@H]3C2)s1	-8.9%
